Calls of active or inactive are those of the source. The calls are words filed in the database; no cut-off is given here.
Tests used:
[1] = biological target: T1, S-adenosylmethionine decarboxylase proenzyme (Rattus norvegicus, UniProt P17708); assay: Inhibitory concentration of compound against S-Adenosyl-methionine decarboxylase (SAMDC) from rat liver
T1 sequence (P17708 whole entry): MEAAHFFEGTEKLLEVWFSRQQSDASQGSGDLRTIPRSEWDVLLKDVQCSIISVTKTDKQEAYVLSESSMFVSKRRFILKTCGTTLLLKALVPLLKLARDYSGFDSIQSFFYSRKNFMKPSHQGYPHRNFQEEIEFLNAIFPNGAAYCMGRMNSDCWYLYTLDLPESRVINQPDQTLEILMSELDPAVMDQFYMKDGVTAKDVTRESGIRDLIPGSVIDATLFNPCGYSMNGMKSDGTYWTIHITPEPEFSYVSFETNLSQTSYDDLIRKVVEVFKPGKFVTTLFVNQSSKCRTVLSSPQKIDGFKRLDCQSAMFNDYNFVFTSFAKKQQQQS

T-24 = assay: Antiproliferative activity against human T24 bladder carcinoma cells; format: functional, cell-based
[2] = biological target: T2, Diamine oxidase [copper-containing] (Rattus norvegicus, UniProt P36633); assay: In vitro inhibition of Diamine oxidase (DAO) from rat small intestine.; format: tissue-based
T2 sequence (P36633 whole entry): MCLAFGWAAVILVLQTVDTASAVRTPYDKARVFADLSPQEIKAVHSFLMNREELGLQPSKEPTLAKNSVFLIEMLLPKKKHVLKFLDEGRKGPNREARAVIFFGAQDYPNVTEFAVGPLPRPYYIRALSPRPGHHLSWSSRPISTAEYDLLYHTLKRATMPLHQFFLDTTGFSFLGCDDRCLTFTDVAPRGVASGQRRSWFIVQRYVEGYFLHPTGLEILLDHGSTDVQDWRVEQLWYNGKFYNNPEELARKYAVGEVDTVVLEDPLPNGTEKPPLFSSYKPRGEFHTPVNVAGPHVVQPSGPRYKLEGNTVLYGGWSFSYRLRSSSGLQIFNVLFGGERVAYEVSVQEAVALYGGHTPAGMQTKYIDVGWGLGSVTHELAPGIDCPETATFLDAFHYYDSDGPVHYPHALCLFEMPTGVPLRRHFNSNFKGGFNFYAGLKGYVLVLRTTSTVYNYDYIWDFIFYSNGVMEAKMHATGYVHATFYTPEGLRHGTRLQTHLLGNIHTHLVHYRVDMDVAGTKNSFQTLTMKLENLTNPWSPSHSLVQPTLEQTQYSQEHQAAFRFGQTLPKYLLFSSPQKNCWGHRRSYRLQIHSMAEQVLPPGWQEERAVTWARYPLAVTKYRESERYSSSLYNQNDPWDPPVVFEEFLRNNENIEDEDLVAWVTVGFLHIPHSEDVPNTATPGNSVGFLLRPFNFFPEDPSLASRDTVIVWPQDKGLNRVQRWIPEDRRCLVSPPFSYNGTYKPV

[3] = biological target: T3, Ornithine decarboxylase (Rattus norvegicus) (UniProt P09057); assay: Evaluated for inhibition of rat liver ornithine decarboxylase (ODC) at concentrations of 50 uM; No inhibition
T3 sequence (whole entry): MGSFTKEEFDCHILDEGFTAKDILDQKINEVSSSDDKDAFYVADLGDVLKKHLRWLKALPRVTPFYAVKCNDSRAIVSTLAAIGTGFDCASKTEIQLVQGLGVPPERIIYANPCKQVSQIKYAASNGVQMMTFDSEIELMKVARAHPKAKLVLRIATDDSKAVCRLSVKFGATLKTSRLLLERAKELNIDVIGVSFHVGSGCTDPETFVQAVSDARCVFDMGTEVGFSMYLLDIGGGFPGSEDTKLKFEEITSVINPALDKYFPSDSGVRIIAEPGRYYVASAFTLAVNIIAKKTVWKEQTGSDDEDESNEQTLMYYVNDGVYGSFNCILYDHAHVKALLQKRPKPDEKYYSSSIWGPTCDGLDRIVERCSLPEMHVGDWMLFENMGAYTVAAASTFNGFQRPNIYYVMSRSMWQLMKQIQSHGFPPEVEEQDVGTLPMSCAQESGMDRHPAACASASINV

SMILES | IC50 [1] | IC50 [2] | inhibition [3] | IC50 (T-24)
N=C(N)c1cc(-c2ccnc(C(=N)N)c2)ccn1 | 0.18 µM | 12.9 µM | inactive | > 151 µM
N=C(N/N=C/c1cccc(C(=N)N)n1)N/N=C/c1cccc(C(=N)N)n1 | 0.12 µM | 0.76 µM | inactive | 49.8 µM
N=C(N)c1cccc(-c2cccc(C(=N)N)n2)n1 | 0.006 µM | 240 µM | inactive | 1.1 µM
N=C(NO)N/N=C/c1cccc(C(=N)N)n1 | 0.24 µM | 7.5 µM | inactive | 32.9 µM
N=C(N)c1cccc(-c2ccnc(C(=N)N)n2)c1 | 0.006 µM | 10 µM | inactive | 68.2 µM
CC/C(=N\N=C(N)N)c1cccc(C(=N)N)c1 | 0.088 µM | 15 µM | inactive | > 152 µM
N=C(NN)c1cccc(/C=N/N=C(N)N)n1 | 0.084 µM | 19 µM | inactive | 60.5 µM
CC(/C=N/NC(=N)N)=N\NC(=N)N [MITOGUAZONE] | – | 1.5 µM | inactive | 1.1 µM
C/C(=N\N=C(N)N)c1cccc(C(=N)N)c1 | 0.066 µM | 2.7 µM | inactive | 118 µM
N=C(NN)N/N=C/c1cccc(C(=N)N)n1 | 0.67 µM | 1.66 µM | inactive | 83.6 µM
N=C(N)c1cccc(-c2cccc(C(=N)N)c2)c1 | 0.6 µM | – | inactive | > 160 µM
N=C(N)c1ccnc(-c2cc(C(=N)N)ccn2)c1 | 3.1 µM | – | inactive | > 143 µM

More lines, main results first:

IC50 [1] | IC50 [2] | inhibition [3] | SMILES | IC50 (T-24)
0.33 µM | 3.2 µM | inactive | N=C(N)N/N=C/c1ccnc(C(=N)N)c1 | > 180 µM
11 µM | 3.4 µM | inactive | N=C(N)N/N=C/c1nccc(C(=N)N)n1 | > 126 µM
0.09 µM | 0.87 µM | inactive | N=C(N)N/N=C/c1cccc(C(=N)N)n1 | 10.1 µM
> 50 µM | 5 µM | inactive | CCCCNC(=N)c1cccc(/C=N/N=C(N)N)c1 | > 28.5 µM
0.092 µM | 20 µM | inactive | N=C(NO)N/N=C/c1cccc(C(=N)N)c1 | 14.1 µM
25 µM | > 100 µM | inactive | N=C(N)N/N=C/c1cccc(C(=N)NO)n1 | > 119 µM
20 µM | > 100 µM | inactive | N=C(N)N/N=C/c1cccc(C(N)=O)c1 | > 184 µM
0.061 µM | 0.83 µM | inactive | N=C(N)c1cccc(/C=N/N=C(\N)N/N=C/c2cccc(C(=N)N)c2)c1 | > 101 µM
0.036 µM | 5.6 µM | inactive | N=C(N)N/N=C/c1cccc(C(=N)N)c1 | 9.1 µM
0.21 µM | 0.87 µM | inactive | N=C(NN)N/N=C/c1cccc(C(=N)N)c1 | 25 µM
0.53 µM | 8.05 µM | inactive | N=C(N)N/N=C/c1ccnc(C(=N)N)n1 | > 168 µM
0.16 µM | 2.8 µM | inactive | CCCCNC(=N)N/N=C/c1cccc(C(=N)N)c1 | > 26.8 µM
